Measurements from patent US20130109635A1, “Humanin Decreases Liver Fat and Visceral Fat Accumulation” (priority 2011, published 2013).

Legend:
[1] = test system: Microsomal triglyceride transport protein (MTTP); experiment: Liver gene expression in HFD animals: MTTP; assay type: in vivo, mice; conditions: livers of HFD animals, HNG 2 mg/kg daily
Source text: (§1) To understand the mechanisms through which Humanin decreases liver lipid content, representative genes involved in lipid synthesis (SREBP-1, FAS), lipid oxidation (CPT1b) and lipid packaging and export from liver were studied. […] The role of MTTP was confirmed by studying enzyme activity.

[2] = test system: triglyceride secretion from liver; experiment: Acute ICV infusion of HNG with tyloxapol injection, plasma TG levels, mice; design: species or system C57BLK6 mice; conditions: mouse, in vivo
Procedure: (§2) The effect of humanin analog, HNG, on hepatic lipid fluxes was investigated. In the acute study, HNG was infused into third ventricle (ICV) of awake, unstressed and chronically catheterized Sprague-Dawley rats and C57BLK6 mice and studied plasma triglyceride (TG) levels following an injection of Tyloxapol (Triton WR1339, Sigma-Aldrich Corp, St. Louis, Mo.), an inhibitor of TG clearance. Groups of animals were also challenged with high fat diet (HFD) of 60% fat for one month and were treated with either daily injections of saline or of HNG (2 mg/kg). Body weight and Food intake were monitored twice a week. At the end of one month, liver fat was assessed both by histology and estimation of tissue triglycerides and plasma was collected. Total amount of visceral fat (VF) was determined and the specific depots were meticulously dissected and weighed. Tissue samples were snap-frozen for subsequent analysis.
(§3) With infusion of tyloxapol, there was a steady increase in plasma triglyceride levels in both groups from inhibition of TG clearance. […] The rate of TG secretion was calculated in the animals based on plasma triglyceride levels at 0 and 120 min time points using the following equation: secretion rate of TG/hr mg/min=(TG at 120 min−TG at 0 min)/number of hours.

[3] = High fat diet (60% fat) for one month with daily injections of HNG: food intake, body weight, visceral fat, liver fat, serum lipids; assay type: in vivo, mice; conditions: HNG 2 mg/kg daily
Procedure: as §2
Chronic effects of Humanin on liver lipid content: Groups of animals were challenged with high fat diet (HFD-60% fat) for one month and were treated with either daily injections of saline or HNG (2 mg/kg). At the end of one month, liver fat were assessed both by histology and estimation of tissue triglycerides.

[4] = test system: Apo B; experiment: Liver gene expression in HFD animals: Apo B; assay type: in vivo, mice; conditions: livers of HFD animals, HNG 2 mg/kg daily
Source text: as §1

[5] = test system: MTTP; experiment: MTTP enzyme activity in liver of HFD animals (Roar Biomedical); assay type: in vivo, mice; conditions: HNG 2 mg/kg daily, p<0.01
Source text: as §1

[6] = test system: triglyceride secretion from liver; experiment: Acute ICV infusion of HNG with tyloxapol injection, plasma TG levels, rats; assay type: in vivo, Sprague-Dawley rats
Procedure: as §2
Acute effects of Humanin on liver fluxes: The effect of HN was studied in acute and chronic treatment models. […]
as §3

[7] = test system: SREBP-1; experiment: Liver gene expression in HFD animals: SREBP-1; assay type: in vivo, mice; conditions: data not shown
Source text: as §1

[8] = test system: CPT1b; experiment: Liver gene expression in HFD animals: CPT1b; assay type: in vivo, mice; conditions: data not shown
Source text: as §1

[9] = test system: FAS; experiment: Liver gene expression in HFD animals: FAS; assay type: in vivo, mice; conditions: data not shown
Source text: as §1

Sequence | expression of MTTP vs control [1] | triglyceride secretion from liver [2] | visceral fat (VF) gain vs control ([3]; HFD for 4 weeks) | weight gain vs control ([3]; HFD for 4 weeks) | liver fat (hepatic triglyceride content) ([3]; HFD one month, p<0.05 vs control 70.83±3.74) | expression of Apo B vs control [4] | MTTP activity vs control [5] | serum TG levels at 120 min ([6]; 120 min after tyloxapol 600 mg/kg, p<0.05 vs aCSF 4.33±0.33) [mg/mL] | rate of TG secretion ([6]; (TG at 120 min − TG at 0 min)/number of hours, p<0.05 vs aCSF 2.23±0.16) [mg/mL/h] | expression of SREBP-1 vs control [7] | expression of CPT1b vs control [8] | expression of FAS vs control [9]
MAPRGFSCLLLLTGEIDLPVKRRA (ANALOG OF HUMAN HUMANIN PEPTIDE) [HNG] | significantly higher | increases | gained significantly less VF | gained significantly less weight | 59.78±2.24 μg/mg of tissue | significantly higher | significantly higher | 5.5 ± 0.29 | 2.7 ± 0.2 |  |  | 
MAPRGFSCLLLLTSEIDLPVKRRA (HOMO SAPIENS) [HN, humanin peptide] |  |  |  |  |  |  |  |  |  | no differences | no differences | no differences
